According to ChEMBL document CHEMBL1142789, “Carbonic anhydrase inhibitors: design of thioureido sulfonamides with potent isozyme II and XII inhibitory properties and intraocular pressure lowering activity in a rabbit model of glaucoma” (Bioorg Med Chem Lett, 2005):

Tests used:
Format in all cases: functional
Oryctolagus cuniculus [1] = assay: Tested for the fall of intraocular pressure of glaucomatous rabbits, after treatment with one drop (50 uL) 2% solution at a pH 7.0, directly into the eye after 0 minutes of administration
Oryctolagus cuniculus [2] = assay: Tested for the fall of intraocular pressure of glaucomatous rabbits, after treatment with one drop (50 uL) 2% solution at a pH 7.0, directly into the eye after 60 minutes of administration
Oryctolagus cuniculus [3] = assay: Tested for the fall of intraocular pressure of glaucomatous rabbits, after treatment with one drop (50 uL) 2% solution at a pH 7.0, directly into the eye after 30 minutes of administration
Oryctolagus cuniculus [4] = assay: Tested for the fall of intraocular pressure of glaucomatous rabbits, after treatment with one drop (50 uL) 2% solution at a pH 7.0, directly into the eye after 90 minutes of administration
Oryctolagus cuniculus [5] = assay: Tested for the fall of intraocular pressure of glaucomatous rabbits, after treatment with one drop (50 uL) 2% solution at a pH 6.5, directly into the eye after 60 minutes of administration
Oryctolagus cuniculus [6] = assay: Tested for the fall of intraocular pressure of glaucomatous rabbits, after treatment with one drop (50 uL) 2% solution at a pH 6.5, directly into the eye after 30 minutes of administration
Oryctolagus cuniculus [7] = assay: Tested for the fall of intraocular pressure of glaucomatous rabbits, after treatment with one drop (50 uL) 2% solution at a pH 6.5, directly into the eye after 0 minutes of administration
Oryctolagus cuniculus [8] = assay: Tested for the fall of intraocular pressure of glaucomatous rabbits, after treatment with one drop (50 uL) 2% solution at a pH 6.5, directly into the eye after 90 minutes of administration

| Structure (SMILES) | Activity (Oryctolagus cuniculus [1]) | Activity (Oryctolagus cuniculus [2]) | Activity (Oryctolagus cuniculus [3]) | Activity (Oryctolagus cuniculus [4]) | Activity (Oryctolagus cuniculus [5]) | Activity (Oryctolagus cuniculus [6]) | Activity (Oryctolagus cuniculus [7]) | Activity (Oryctolagus cuniculus [8]) |
| --- | --- | --- | --- | --- | --- | --- | --- | --- |
| NC(=O)CC(N)C(=O)NC(=S)NCCc1ccc(S(N)(=O)=O)cc1.[Cl-].[Na+] (stereo unspecified) | 0 mmHg | 13 mmHg | 10 mmHg | 15.5 mmHg | – | – | – | – |
| Cl.NS(=O)(=O)c1ccc(CC/N=C(\S)NNCCN2CCOCC2)cc1 | – | – | – | – | 6.9 mmHg | 6.5 mmHg | 0 mmHg | 5.9 mmHg |
| NC(Cc1ccccc1)C(=O)NC(=S)NCCc1ccc(S(N)(=O)=O)cc1.[Cl-].[Na+] (stereo unspecified) | 0 mmHg | 6.1 mmHg | 4 mmHg | 6.4 mmHg | – | – | – | – |
| NCC(=O)NC(=S)NCCc1ccc(S(N)(=O)=O)cc1.[Cl-].[Na+] | 0 mmHg | 5.9 mmHg | 3 mmHg | 5.5 mmHg | – | – | – | – |
